From patent publication US20230183259A1, “Crystal Form Of Thiofuran Pyridazine Compound, Preparation Method Therefor And Application Thereof” (ZHEJIANG MEDICINE CO., LTD. XINCHANG PHARMACEUTICAL FACTORY, priority 2020, published 2023)

How the values were obtained:
long-term stability test = format: physicochemical; conditions: 25° C.±2° C., relative humidity 60%±10%
Method: (§1) Stability tests were performed on the samples of Examples 1, 2, 3, 4 and 5. […] Please refer to the results of the acceleration test (40° C.±2° C., relative humidity 75%±5%) of Table 1 and the results of the long-term stability test (25° C.±2° C., relative humidity 60%±10%) of Table 2.

[1] = acceleration test (stability); format: physicochemical; conditions: 40° C.±2° C., relative humidity 75%±5%
Method: as §1

In the case of “(S)-2-(4-fluorophenyl)-4-(piperidine-3-aminomethyl)thieno[2,3-d]pyridazine-7-carboxamide hydrochloride [Example 110601-1]”, the Crystal form (long-term stability test; 0 month) is reported as “unchanged”, the “ImpurityB(%)” value (long-term stability test; 0 month) is reported as 0.00% and the “Content (calculated by dried product )(%)” value (long-term stability test; 0 month, hydrochloride) is reported as 99.1%. For the same substance, the “Enantiomers (%)” value (long-term stability test; 0 month, hydrochloride) was 0.11%, the “ImpurityA(%)” value (long-term stability test; 0 month, hydrochloride) was 0.36% and the “ImpurityC(%)” value (long-term stability test; 0 month, hydrochloride) was 0.03%. For the same substance, the “Loss on drying (%)” value (long-term stability test; 0 month, hydrochloride) was 7.1%, the “Single largest impurity (%)” value (long-term stability test; 0 month, hydrochloride) was 0.02% and the “Total relevant substances (%)” value (long-term stability test; 0 month, hydrochloride) was 0.47%. The appearance (long-term stability test; 0 month, hydrochloride) was “yellow crystalline powder”, the Crystal form (long-term stability test; 3 months) was “unchanged” and the “ImpurityB(%)” value (long-term stability test; 3 months) was 0.00%. The “ImpurityC(%)” value (long-term stability test; 3 months) was 0.02%, the “Content (calculated by dried product )(%)” value (long-term stability test; 3 months, hydrochloride) was 99.9% and the “Enantiomers (%)” value (long-term stability test; 3 months, hydrochloride) was 0.11%. For the same substance, the “ImpurityA(%)” value (long-term stability test; 3 months, hydrochloride) was 0.35%, the “Loss on drying (%)” value (long-term stability test; 3 months, hydrochloride) was 7.0% and the “Single largest impurity (%)” value (long-term stability test; 3 months, hydrochloride) was 0.02%. For the same substance, the “Total relevant substances (%)” value (long-term stability test; 3 months, hydrochloride) was 0.45%, the appearance (long-term stability test; 3 months, hydrochloride) was “yellow crystalline powder” and the Crystal form (long-term stability test; 6 months) was “unchanged”. For the same substance, the “ImpurityB(%)” value (long-term stability test; 6 months) was 0.00%, the “Content (calculated by dried product )(%)” value (long-term stability test; 6 months, hydrochloride) was 99.8% and the “Enantiomers (%)” value (long-term stability test; 6 months, hydrochloride) was 0.08%. The “ImpurityA(%)” value (long-term stability test; 6 months, hydrochloride) was 0.34%, the “ImpurityC(%)” value (long-term stability test; 6 months, hydrochloride) was 0.03% and the “Loss on drying (%)” value (long-term stability test; 6 months, hydrochloride) was 7.0%. For the same substance, the “Single largest impurity (%)” value (long-term stability test; 6 months, hydrochloride) was 0.02%, the “Total relevant substances (%)” value (long-term stability test; 6 months, hydrochloride) was 0.41% and the appearance (long-term stability test; 6 months, hydrochloride) was “yellow crystalline powder”. The Crystal form (long-term stability test; 9 months) was “unchanged”, the “ImpurityC(%)” value (long-term stability test; 9 months) was 0.02% and the “Content (calculated by dried product )(%)” value (long-term stability test; 9 months, hydrochloride) was 99.8%. For the same substance, the “Enantiomers (%)” value (long-term stability test; 9 months, hydrochloride) was 0.08%, the “ImpurityA(%)” value (long-term stability test; 9 months, hydrochloride) was 0.34% and the “ImpurityB(%)” value (long-term stability test; 9 months, hydrochloride) was 0.02%. For the same substance, the “Loss on drying (%)” value (long-term stability test; 9 months, hydrochloride) was 7.0%, the “Single largest impurity (%)” value (long-term stability test; 9 months, hydrochloride) was 0.03% and the “Total relevant substances (%)” value (long-term stability test; 9 months, hydrochloride) was 0.47%. For the same substance, the appearance (long-term stability test; 9 months, hydrochloride) was “yellow crystalline powder”, the Crystal form (long-term stability test; 12 months) was “unchanged” and the “ImpurityB(%)” value (long-term stability test; 12 months) was 0.01%. The “Single largest impurity (%)” value (long-term stability test; 12 months) was 0.02%, the “Content (calculated by dried product )(%)” value (long-term stability test; 12 months, hydrochloride) was 99.4% and the “Enantiomers (%)” value (long-term stability test; 12 months, hydrochloride) was 0.1%. For the same substance, the “ImpurityA(%)” value (long-term stability test; 12 months, hydrochloride) was 0.34%, the “ImpurityC(%)” value (long-term stability test; 12 months, hydrochloride) was 0.02% and the “Loss on drying (%)” value (long-term stability test; 12 months, hydrochloride) was 7.1%. The “Total relevant substances (%)” value (long-term stability test; 12 months, hydrochloride) was 0.43%, the appearance (long-term stability test; 12 months, hydrochloride) was “yellow crystalline powder” and the Crystal form (long-term stability test; 18 months) was “unchanged”. The “ImpurityB(%)” value (long-term stability test; 18 months) was 0.00%, the “Single largest impurity (%)” value (long-term stability test; 18 months) was 0.02% and the “Content (calculated by dried product )(%)” value (long-term stability test; 18 months, hydrochloride) was 99.5%. The “Enantiomers (%)” value (long-term stability test; 18 months, hydrochloride) was 0.07%, the “ImpurityA(%)” value (long-term stability test; 18 months, hydrochloride) was 0.37% and the “ImpurityC(%)” value (long-term stability test; 18 months, hydrochloride) was 0.04%. For the same substance, the “Loss on drying (%)” value (long-term stability test; 18 months, hydrochloride) was 7.0%, the “Total relevant substances (%)” value (long-term stability test; 18 months, hydrochloride) was 0.45% and the appearance (long-term stability test; 18 months, hydrochloride) was “yellow crystalline powder”. For the same substance, the Crystal form (long-term stability test; 24 months) was “unchanged”, the “Enantiomers (%)” value (long-term stability test; 24 months) was 0.08% and the “ImpurityB(%)” value (long-term stability test; 24 months) was 0.00%. The “ImpurityC(%)” value (long-term stability test; 24 months) was 0.02%, the “Single largest impurity (%)” value (long-term stability test; 24 months) was 0.02% and the “Content (calculated by dried product )(%)” value (long-term stability test; 24 months, hydrochloride) was 98.3%. The “ImpurityA(%)” value (long-term stability test; 24 months, hydrochloride) was 0.37%, the “Loss on drying (%)” value (long-term stability test; 24 months, hydrochloride) was 7.4% and the “Total relevant substances (%)” value (long-term stability test; 24 months, hydrochloride) was 0.43%. For the same substance, the appearance (long-term stability test; 24 months, hydrochloride) was “yellow crystalline powder”, the Crystal form (long-term stability test; 36 months) was “unchanged” and the “ImpurityC(%)” value (long-term stability test; 36 months) was 0.02%. For the same substance, the “Single largest impurity (%)” value (long-term stability test; 36 months) was 0.02%, the “Content (calculated by dried product )(%)” value (long-term stability test; 36 months, hydrochloride) was 99.9% and the “Enantiomers (%)” value (long-term stability test; 36 months, hydrochloride) was 0.07%. The “ImpurityA(%)” value (long-term stability test; 36 months, hydrochloride) was 0.38%, the “ImpurityB(%)” value (long-term stability test; 36 months, hydrochloride) was 0.02% and the “Loss on drying (%)” value (long-term stability test; 36 months, hydrochloride) was 7.3%. For the same substance, the “Total relevant substances (%)” value (long-term stability test; 36 months, hydrochloride) was 0.50%, the appearance (long-term stability test; 36 months, hydrochloride) was “yellow crystalline powder” and the “(%) Impurity B (%)” value ([1]; 0 month) was 0.00%. The Crystal form ([1]; 0 month) was “unchanged”, the appearance ([1]; 0 month) was “yellow crystalline powder” and the “Enantiomer (%)” value ([1]; 0 month, hydrochloride) was 0.11%. For the same substance, the “Impurity A (%)” value ([1]; 0 month, hydrochloride) was 0.36%, the “Impurity C (%)” value ([1]; 0 month, hydrochloride) was 0.03% and the “Loss on drying (%)” value ([1]; 0 month, hydrochloride) was 7.1%. For the same substance, the “Single largest impurity (%)” value ([1]; 0 month, hydrochloride) was 0.02%, the “Total relevant substances (%)” value ([1]; 0 month, hydrochloride) was 0.47% and the “content(%)” value ([1]; 0 month, hydrochloride) was 99.1%. For the same substance, the Crystal form ([1]; 1 month) was “unchanged”, the “Impurity C (%)” value ([1]; 1 month) was 0.02% and the appearance ([1]; 1 month) was “yellow crystalline powder”. The “(%) Impurity B (%)” value ([1]; 1 month, hydrochloride) was 0.00%, the “Enantiomer (%)” value ([1]; 1 month, hydrochloride) was 0.13% and the “Impurity A (%)” value ([1]; 1 month, hydrochloride) was 0.34%. The “Loss on drying (%)” value ([1]; 1 month, hydrochloride) was 7.1%, the “Single largest impurity (%)” value ([1]; 1 month, hydrochloride) was 0.02% and the “Total relevant substances (%)” value ([1]; 1 month, hydrochloride) was 0.46%. For the same substance, the “content(%)” value ([1]; 1 month, hydrochloride) was 100.5%, the Crystal form ([1]; 2 months) was “unchanged” and the appearance ([1]; 2 months) was “yellow crystalline powder”. For the same substance, the “(%) Impurity B (%)” value ([1]; 2 months, hydrochloride) was 0.00%, the “Enantiomer (%)” value ([1]; 2 months, hydrochloride) was 0.11% and the “Impurity A (%)” value ([1]; 2 months, hydrochloride) was 0.35%. The “Impurity C (%)” value ([1]; 2 months, hydrochloride) was 0.02%, the “Loss on drying (%)” value ([1]; 2 months, hydrochloride) was 7.1% and the “Single largest impurity (%)” value ([1]; 2 months, hydrochloride) was 0.02%. For the same substance, the “Total relevant substances (%)” value ([1]; 2 months, hydrochloride) was 0.44%, the “content(%)” value ([1]; 2 months, hydrochloride) was 100.6% and the “(%) Impurity B (%)” value ([1]; 3 months) was 0.00%. For the same substance, the Crystal form ([1]; 3 months) was “unchanged”, the “Impurity C (%)” value ([1]; 3 months) was 0.02% and the appearance ([1]; 3 months) was “yellow crystalline powder”. The “Enantiomer (%)” value ([1]; 3 months, hydrochloride) was 0.1%, the “Impurity A (%)” value ([1]; 3 months, hydrochloride) was 0.33% and the “Loss on drying (%)” value ([1]; 3 months, hydrochloride) was 7.0%. For the same substance, the “Single largest impurity (%)” value ([1]; 3 months, hydrochloride) was 0.03%, the “Total relevant substances (%)” value ([1]; 3 months, hydrochloride) was 0.44% and the “content(%)” value ([1]; 3 months, hydrochloride) was 99.6%. For the same substance, the “(%) Impurity B (%)” value ([1]; 6 months) was 0.00%, the Crystal form ([1]; 6 months) was “unchanged” and the “Impurity C (%)” value ([1]; 6 months) was 0.02%. For the same substance, the appearance ([1]; 6 months) was “yellow crystalline powder”, the “Enantiomer (%)” value ([1]; 6 months, hydrochloride) was 0.08% and the “Impurity A (%)” value ([1]; 6 months, hydrochloride) was 0.30%. The “Loss on drying (%)” value ([1]; 6 months, hydrochloride) was 7.0%, the “Single largest impurity (%)” value ([1]; 6 months, hydrochloride) was 0.03% and the “Total relevant substances (%)” value ([1]; 6 months, hydrochloride) was 0.41%. The “content(%)” value ([1]; 6 months, hydrochloride) was 99.6%.
